From patent publication US20050255509A1, “In vivo measurement of the relative fluxes through ribonucleotide reductase vs. deoxyribonucleoside pathways using isotopes” (KineMed, Inc., priority 2004, published 2005)

Key:
[1] = molecular target: T1, ribonucleotide reductase (RR) (Mus musculus, UniProt P07742+P11157); assay: RR inhibition in tumor and bone marrow of EMT7 tumor-bearing mice over 5 days of chemotherapy; type: in vivo; conditions: balb/C mice with EMT7 tumors, 125 mg/kg Gem every other day or 500 mg/kg HU daily, relative to untreated (control) mice
T1 construct: from tissue; host or cells: EMT7 mouse mammary carcinoma tumour and bone marrow of female balb/C mice
T1 sequence (P07742 1-792): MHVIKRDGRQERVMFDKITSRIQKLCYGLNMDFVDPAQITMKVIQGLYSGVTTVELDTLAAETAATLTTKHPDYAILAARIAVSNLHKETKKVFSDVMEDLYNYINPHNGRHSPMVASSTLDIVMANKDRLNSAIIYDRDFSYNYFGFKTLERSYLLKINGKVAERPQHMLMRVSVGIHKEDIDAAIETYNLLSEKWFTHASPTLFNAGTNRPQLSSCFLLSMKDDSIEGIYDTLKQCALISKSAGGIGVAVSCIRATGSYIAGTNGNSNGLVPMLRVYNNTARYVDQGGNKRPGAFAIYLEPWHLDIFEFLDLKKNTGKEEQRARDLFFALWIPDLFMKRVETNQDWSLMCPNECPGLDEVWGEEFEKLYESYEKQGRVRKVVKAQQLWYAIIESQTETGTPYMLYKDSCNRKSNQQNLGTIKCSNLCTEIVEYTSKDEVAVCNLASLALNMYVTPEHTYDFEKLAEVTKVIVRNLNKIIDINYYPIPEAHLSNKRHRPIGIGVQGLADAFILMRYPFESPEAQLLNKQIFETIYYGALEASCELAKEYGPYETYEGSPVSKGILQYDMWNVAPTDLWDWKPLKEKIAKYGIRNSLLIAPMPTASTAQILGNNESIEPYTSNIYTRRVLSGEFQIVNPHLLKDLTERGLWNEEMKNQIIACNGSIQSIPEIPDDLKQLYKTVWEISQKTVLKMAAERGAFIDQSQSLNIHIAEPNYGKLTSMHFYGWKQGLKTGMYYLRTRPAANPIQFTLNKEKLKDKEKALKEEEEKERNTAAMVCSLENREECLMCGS
T1 sequence (P11157 1-390): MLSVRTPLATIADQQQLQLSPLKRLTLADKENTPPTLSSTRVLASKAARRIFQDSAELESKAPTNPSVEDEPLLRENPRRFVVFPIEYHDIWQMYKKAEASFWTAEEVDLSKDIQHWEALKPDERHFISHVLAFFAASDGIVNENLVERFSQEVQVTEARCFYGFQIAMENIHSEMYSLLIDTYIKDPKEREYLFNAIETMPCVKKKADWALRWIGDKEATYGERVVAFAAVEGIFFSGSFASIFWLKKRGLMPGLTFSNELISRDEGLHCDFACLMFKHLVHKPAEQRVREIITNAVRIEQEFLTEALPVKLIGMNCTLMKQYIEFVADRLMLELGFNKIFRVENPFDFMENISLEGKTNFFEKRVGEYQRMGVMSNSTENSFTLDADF
Procedure: Female balb/C mice were implanted subcutaneously with approximately 10^6 EMT7 mouse mammary carcinoma cells in matrigel and allowed to reach ca.1500 mm^3.
(§1) Mice were labeled with 2H2O with an i.p. bolus and treatment with either 125 mg/kg gemcitabine (Gem) or 500 mg/kg HU began. Gem was administered every other day, HU daily. At then end of 5 days tumors were removed, measured, homogenized and DNA was isolated as described, supra. Bone marrow was isolated using standard techniques. Bone marrow DNA was isolated as described, supra. GC/MS analysis was described as carried out, and calculations of RR activity and cell proliferation were carried out for both tumor and bone marrow tissues. Tumor volume was also measured by use of a caliper as is standard in the art.

[2] = tested on: EMT7 mouse mammary carcinoma cells; assay: In vivo tumor cell proliferation by 2H2O incorporation over 5 days of chemotherapy; conditions: balb/C mice with EMT7 tumors, 125 mg/kg Gem every other day or 500 mg/kg HU daily
Procedure: as §1, with “Female balb/C mice were implanted subcutaneously with approximately 10^6 EMT7 mouse mammary carcinoma cells in matrigel and allowed to reach ca.1500 mm^3. Mice” for “Mice”

[3] = tested on: EMT7 mouse mammary carcinoma cells; assay: Tumor volume by caliper over 5 days of chemotherapy; type: in vivo; conditions: balb/C mice with EMT7 tumors, 125 mg/kg Gem every other day or 500 mg/kg HU daily
Procedure: as §1, with “Female balb/C mice were implanted subcutaneously with approximately 10^6 EMT7 mouse mammary carcinoma cells in matrigel and allowed to reach ca.1500 mm^3. Mice” for “Mice”

[4] = molecular target: T2, ribonucleotide reductase (RR) (Homo sapiens, UniProt P23921+P31350); assay: RR activity measured by 2H2O in SW1573 cells; type: cell-based; set-up: endogenous in cells; host or cells: SW1573 non-small cell lung carcinoma cells; conditions: 24 hours; for RR activity, % of control: level reached with increasing doses
T2 sequence (P23921 1-792): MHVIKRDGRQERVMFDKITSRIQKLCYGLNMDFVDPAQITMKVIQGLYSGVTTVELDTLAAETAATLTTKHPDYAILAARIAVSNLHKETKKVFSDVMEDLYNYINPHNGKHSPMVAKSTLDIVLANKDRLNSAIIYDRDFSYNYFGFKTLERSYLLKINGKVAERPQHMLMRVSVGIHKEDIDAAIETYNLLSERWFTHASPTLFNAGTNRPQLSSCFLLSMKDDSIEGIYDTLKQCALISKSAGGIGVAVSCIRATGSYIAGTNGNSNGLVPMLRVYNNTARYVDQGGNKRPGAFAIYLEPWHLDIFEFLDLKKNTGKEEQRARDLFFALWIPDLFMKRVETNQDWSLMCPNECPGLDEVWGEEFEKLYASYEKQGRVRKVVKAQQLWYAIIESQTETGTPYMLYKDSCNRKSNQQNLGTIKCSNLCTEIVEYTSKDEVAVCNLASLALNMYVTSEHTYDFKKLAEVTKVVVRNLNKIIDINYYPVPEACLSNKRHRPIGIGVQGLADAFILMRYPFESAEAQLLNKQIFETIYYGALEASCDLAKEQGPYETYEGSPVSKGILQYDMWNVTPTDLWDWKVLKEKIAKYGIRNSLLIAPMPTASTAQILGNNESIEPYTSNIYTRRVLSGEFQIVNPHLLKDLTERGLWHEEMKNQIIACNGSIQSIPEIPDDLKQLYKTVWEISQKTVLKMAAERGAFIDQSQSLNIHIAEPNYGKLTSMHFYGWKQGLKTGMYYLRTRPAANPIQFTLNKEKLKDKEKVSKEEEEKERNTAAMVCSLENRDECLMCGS
T2 sequence (P31350 1-389): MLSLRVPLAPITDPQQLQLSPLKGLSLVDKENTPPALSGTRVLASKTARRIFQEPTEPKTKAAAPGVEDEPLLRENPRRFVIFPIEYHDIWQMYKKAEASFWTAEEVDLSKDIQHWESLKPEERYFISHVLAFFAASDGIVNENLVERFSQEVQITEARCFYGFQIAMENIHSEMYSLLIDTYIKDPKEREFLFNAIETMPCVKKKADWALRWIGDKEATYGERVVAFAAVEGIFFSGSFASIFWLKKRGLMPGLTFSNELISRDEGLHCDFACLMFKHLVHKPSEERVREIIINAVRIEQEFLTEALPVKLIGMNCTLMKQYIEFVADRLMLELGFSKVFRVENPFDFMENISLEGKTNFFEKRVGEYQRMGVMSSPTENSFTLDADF
Procedure: Ribonucleotide reductase catalyzes the conversion of ribonucleotides to deoxyribonucleotides (FIG. 1A). A unique feature of RR is the response of nucleoside metabolism to its inhibition. When RR is inhibited, the activity of thymidine kinase is increased. […] Traditionally, this effect is assayed in vitro by measuring the increase in the concentration of free TTP pool relative to the other deoxynucleotides. […] The salvage of deoxyadenosine is very low in normal cells allowing the measurement of DNA synthesis from the incorporation of de novo deoxyadenosine (see supra); furthermore since dAk activity is not affected by RR inhibition it can be used as the denominator for calculating fractional de novo thymidine synthesis. The relative inhibition of RR can be inferred from the reduction in de novo thymidine incorporation relative to dA into DNA. In a preferred embodiment of the invention, once the isotopic enrichment of dA and dT have been determined (as described, supra) for both a test and control subject or sample, the ratio of dT enrichment to dA enrichment is compared.
(§2) Non-small cell lung carcinoma cells (SW1573) were grown under standard conditions to approximately 50% confluence. Media was removed and replaced with media containing 4% ^2H2O, 1 µM dN's and hydroxyurea or gemcitabine at various concentrations. Cells were grown for and additional 24 hours after which they were harvested and frozen. Cell proliferation and RR inhibition was performed as described, supra.

[5] = tested on: MCF7 cells; assay: Cell proliferation in hydroxyurea-treated MCF7 cells (2H2O labeling and coulter counter); type: cell-based; conditions: 24 hours, hydroxyurea at various concentrations
[6] = tested on: SW1573 cells; assay: Cell proliferation measured by 2H2O in SW1573 cells; type: cell-based; conditions: 24 hours
Procedure: as §2

[7] = molecular target: T2, ribonucleotide reductase (RR); assay: RR activity measured by 2H2O in hydroxyurea-treated MCF7 cells; type: cell-based; set-up: endogenous in cells; conditions: 24 hours
Procedure: Ribonucleotide reductase catalyzes the conversion of ribonucleotides to deoxyribonucleotides (FIG. 1A). A unique feature of RR is the response of nucleoside metabolism to its inhibition. When RR is inhibited, the activity of thymidine kinase is increased. […] Traditionally, this effect is assayed in vitro by measuring the increase in the concentration of free TTP pool relative to the other deoxynucleotides. […] In a preferred embodiment of the invention, once the isotopic enrichment of dA and dT have been determined (as described, supra) for both a test and control subject or sample, the ratio of dT enrichment to dA enrichment is compared.
Mammary carcinoma cells (MCF7) were grown under standard conditions to approximately 50% confluence. […] Cells continued to grow for 24 hours after which they were harvested, counted by coulter counter, and frozen.
Genomic DNA was isolated from frozen cells using a Qiagen Tissue Prep Kit according to the manufacturer's instructions. DNA digestion was performed after measuring the ratio of 260/280 to quantify the amount of isolated DNA. […]
HPLC Purification: dA and T were then isolated at room temperature by using a Waters HPLC system coupled with a UV detector. […] Normal nucleosides (dC, dG, dT, dA) were detected by UV absorption at 254 nm. […]

SMILES	bone marrow cell RR activity [1]	tumor cell RR activity [1]	tumor cell proliferation [2]	tumor volume [3]	inhibition at 0.0016 µM ([4]; 1.6 nM)	RR activity ([4]; 48 nM)	RR activity, % of control [4]	rate of cell proliferation [5]	concentration at which inhibition of cell proliferation was evident [6]	RR activity ([7]; doses 50 μM HU and above)	activity of RR ([7]; hydroxyurea at various concentrations)	concentration at which apparent maximal RR inhibition occurred [4]	inhibition at 6 µM [4]
Nc1ccn([C@@H]2O[C@H](CO)[C@@H](O)C2(F)F)c(=O)n1 [gemcitabine]	inhibited	inhibited	effect of HU and Gem on cell proliferation is observed	no change	70%	nearly abolishes	~0 % of control	–	–	–	–	–	–
NC(=O)NO [hydroxyurea]	inhibited	inhibited	effect of HU and Gem on cell proliferation is observed	no change	–	–	−20 % of control	reduces the rate of cell proliferation	20 µM	dramatically inhibited	reduces	6 µM	80%
